Data set [1] relates to Atrial natriuretic factor (ANF) expression, C2C12 cells. The data set is described as follows: ANF test (ANF promoter luciferase reporter) in C2C12 cells. Format: cell-based, murine. On the set-up: key to Evaluation (luminescence in relation to the blank): −: decrease of luminescence compared to the blank value; +: measurable increase; ++: at least 1.5-fold increase; +++: at least 2-fold increase. To be noted: for Evaluation (luminescence in relation to the blank): C2C12 cells (*), compound 1 μM in DMSO, relative to DMSO blank. An excerpt:
(§1) Atrial natriuretic factor (ANF) or atrial natriuretic peptide (ANP) is a cyclic peptide hormone made up of 28 amino acids, which is predominantly emitted by the muscle cells (myocytes) of the atrium of the heart. It is stored in the atrium as a pro-hormone made of 126 amino acids and is cleaved by serine protease corine into an N-terminal part and the biologically active ANF, which is often used as a cardiac-specific marker protein. In cell differentiation measurements, i.e. in determining the extent to which certain cells have become “cardiac cell-like” by differentiation, often a reporter gene located downstream of the ANF gene is used, as it expression product is easier to detect than the concentration of ANF in a cellular culture, for example, a luciferase gene. Luciferase in an enzyme which catalyzes the oxidation of a luminescent substrate (luciferine). While that happens, light is emitted, and the intensity of that light is correlated with the expression level of ANF and can therefore serve as a measure of ANF expression.
(§2) Initial attempts of ANF expression screenings were performed with P19 cells, i.e. murine embryonal carcinoma cells obtained from the ATCC, or C2C12 cells, i.e. a murine myoblast cell line, as models. In preparation, a plasmid was first constructed by amplifying a gene fragment containing a rat ANF promoter region and subcloning it into the PCL3-BV luciferase reporter plasmid of Promega. The P19 cells were temporarily transfected with said plasmid and cultured in Modified Eagle's Medium alpha (MEM-α) with 7.5% neonatal calf serum and 2.5% fetal bovine serum at 37° C. under 5% CO2 in monolayers for 8 days, during which the medium was exchanged three times. The respective compounds were added at about 60% confluence in DMSO as solvents at a concentration of 1 μM or DMSO alone (as a blank). The luminescence of the samples was measured with a Perkin Elmer Victor V 1420 Multilabel Counter. Their increase or decrease in the presence of the compounds of formula (I) is given in Table 1 below in relation to the blank.
(§3) The evaluations have the following meanings: • − decrease of luminescence compared to the blank value; • + measurable increase; • ++ at least 1.5-fold increase; • +++ at least 2-fold increase; • * represents C2C12 cells; and • ** represents P19 cells.
Background: Reporter assays use an easily measured gene product as a stand-in for the process of interest.

Data set [2] relates to Atrial natriuretic factor (ANF) expression, P19 cells. The data set is described as follows: ANF test (ANF promoter luciferase reporter) in P19 cells. Further details: key to Evaluation (luminescence in relation to the blank): −: decrease of luminescence compared to the blank value; +: measurable increase; ++: at least 1.5-fold increase; +++: at least 2-fold increase. Format: cell-based, murine. Conditions: for ANF expression level / efficiency, stated in words: ANF test, P19 cells (DTAB and summary statements also cover C2C12); for Evaluation (luminescence in relation to the blank) / fold induction at 1 µM: P19 cells (**), compound 1 μM in DMSO, 8 days culture, relative to DMSO blank; for fold induction at 1 µM: Mus musculus, 192 h, read-out: Evaluation (luminescence in relation to the blank).
Excerpt: as §1, §2, §3

A further data set concerns zebrafish embryos. To be noted: literature (Peterson et al.); cited from earlier work.

The melting point is the temperature, or range, at which the solid turns liquid. As for `COc1ccc(Nc2nc(Cl)nc(NCCCO)n2)cc1` [(2), 3-[4-chloro-6-(4-methoxyphenylamino)-1,3,5-triazin-2-ylamino]propan-1-ol], the melting point fell in the range of 155 to 159 °C. The “Evaluation (luminescence in relation to the blank)” value (“Evaluation” for short) in data set [1] is listed as “++* (at least 1.5-fold increase)”. Besides, the “efficiency in ANF test, stated in words” value in data set [1] (C2C12 cells, 1 μM) is listed as “very good efficiency”.

`COc1ccc(Nc2nc(Cl)nc(NCCO)n2)cc1` [Compound (1), 2-[4-chloro-6-(4-methoxyphenylamino)-1,3,5-triazin-2-ylamino]ethanol] returned a melting point of 169 to 173 °C. The “Evaluation” value in data set [1] was “+*”.

Regarding `O=C(O)c1cccc(Nc2nc(Oc3ccccc3)nc(Oc3ccccc3)n2)c1` [DTAB, 3-[(4.6-diphenoxy-1,3,5-triazin-2-yl)amino]benzoic acid, reference compound], the “Evaluation” value in data set [1] and in data set [2] was “−* −**” in each case. Besides, the “ANF expression level / efficiency, stated in words” value in data set [2] was “substantially no changes in the ANF expression level were found, even a slight decrease”. For the same compound, in the data set on zebrafish embryos, the “influence on embryo development” value is “substantial influence on the formation of the anterior-posterior (A-P) axis and organ development in embryos”.

For the compound `COc1ccc(Oc2nc(Nc3cccc(C(=O)O)c3)nc(Oc3ccc(C#N)cc3)n2)cc1` [(38), 3-{[4-(4-cyanophenoxy)-6-(4-methoxyphenoxy)-1,3,5-triazin-2-yl]-amino}benzoic acid], the melting point lay in the range of 240.5 to 242.5 °C. Also, the fold induction at 1 µM in data set [2] was at least 1.5.

Take `COc1cc(C=O)ccc1Oc1nc(Nc2cccc(C(=O)O)c2)nc(Oc2ccccc2)n1` [(36), 3-{[4-(4-formyl-2-methoxyphenoxy)-6-phenoxy-1,3,5-triazin-2-yl]-amino}benzoic acid]: the melting point is 217.5 to 220 °C. For the same compound, in data set [2], the fold induction at 1 µM is at least 2. The “increased ANF expression (peak value)” value in data set [2] (P19 cells, 1 μM, relative to blank) is “more than threefold”.

`CCNc1nc(Cl)nc(Nc2ccc(OC)cc2)n1` [(3), 6-chloro-N2-ethyl-N4-(4-methoxyphenyl)-1,3,5-triazin-2.4-diamine] displayed a melting point of 174 to 176 °C. Besides, in data set [2], the “ANF expression level / efficiency, stated in words” value is given as “the poorest measurement results among all compounds” and the “Evaluation” value was “−**”.

Regarding `O=C(O)c1cccc(Nc2nc(Oc3ccccc3)nc(Oc3cccc(Cl)c3)n2)c1` [(30), 3-{[4-(3-chlorophenoxy)-6-phenoxy-1,3,5-triazin-2-yl]amino}benzoic acid], the melting point lay within 227 to 230 °C. Moreover, the fold induction at 1 µM in data set [2] was at least 1.5.

The values are drawn from patent publication US9611457B2, “Triazine derivatives as differentiation catalysts” (TECHNISCHE UNIVERSITAET WIEN, priority 2011, dated 2017).
